Source: patent publication US20040192641A1, “Special preparation of anticancer drugs made by novel nanotechnology” (priority 2003, published 2004)
Marks after values point to notes of the source that are not given here.

Tests used:
tumor-bearing mice = experiment: Survival time of tumor-bearing mice (ELE, CPT); conditions: mouse, in vivo
Description: (§1) The acceptable criterion for determining the anti-tumor efficacy of the formulation over the free ELE and PK-ELE-NP are the determination of the life span prolongation.
(§2) The number of dead cells in the peritoneal fluid of mice treated with PK-ELE-NP formulation increased life span when compared to free ELE.
(§3) The acceptable criterion for determining the anti-tumor efficacy of the formulation over the free drug and PK-CPT-NP are the determination of the life span prolongation. The number of dead cells in the peritoneal fluid of mice treated with PK-CPT-NP formulation increased life span when compared to free CPT.

tumor cells = experiment: Stained dead tumor cells in peritoneal fluid of tumor-bearing mice (ELE, CPT); type: in vivo; conditions: 12th day of tumor inoculation
Description: as §1, §2, §3

[1] = system: Human promyelocytic leukemia cells (HL-60); experiment: Induced differentiation of HL-60 cells (NBT reduction); type: cell-based; conditions: 0.1 μg/ml (10×10^−7 g/ml)
Description: (§4) Human promyelocytic leukemia cells (HL-60) were grown in RPMI Medium 1640 supplemented with 10% (v/v) heat-inactivated FBS (56° C. for 30 min) at 37° C. in a humidified 95% air/5% CO2 atmosphere. Cells were seeded at a level of 2×10^5 cells/ml. Cells were allowed to attain a maximum density of 1.2×10^6 cells/ml before being passed by dilution into fresh medium to a concentration of 2×10^5 cells/ml. Differentiation was induced in HL-60 cells by treatment with 0.1 μg/ml ([…]) of CUR or PK-CUR-NP. Cell differentiation was measured by the ability of cells to reduce NBT.
as §4, with “ELE” for “CUR”, “PK-ELE-NP.” for “PK-CUR-NP.”, “NBT. Increasing NBT % means that cancer cells are differentiation.” for “NBT.”
as §4, with “CPT” for “CUR”, “PK-CPT-NP.” for “PK-CUR-NP.”, “NBT. Increasing NBT % means that cancer cells are differentiation.” for “NBT.”

Subacute toxicity test = type: in vivo; conditions: 50 times the clinical dose, continually for two months
tumor S-180 [2] = experiment: Survival time of tumor-bearing mice (CUR); conditions: mouse, in vivo
Description: (§5) The acceptable criterion for determining the anti-tumor efficacy of the free CUR and PK-CUR-NP are the determination of the life span prolongation.
(§6) The number of dead cells in the peritoneal fluid of mice treated with PK-CUR-NP increased life span when compared to free CUR.

tumor S-180 [3] = experiment: Stained dead tumor cells in peritoneal fluid of tumor-bearing mice (CUR); type: in vivo; conditions: 12th day of tumor S-180 inoculation
Description: as §5, §6

L-120 leukemia = experiment: Survival of mice bearing leukemia (free HHT vs PK-HHT-NP); type: in vivo
Description: Methods: L-120 leukemia mice, weight 20-22 g were used in the experiment. […] The dose of PK-HHT-NP is equivalent of free HHT. (All the following comparing experiments are used same methods).

HL-60 cells = experiment: Differentiation of human leukemic cells (HL-60), Example 57; type: cell-based
Description: Cell Lines. HL-60 cells were established from a patient with acute myeloid leukemia. The cells were cultured in culture flasks with RPMI plus 10% FCS.
Studies of Induction of Differentiation. Differentiation of HL-60 cells was assessed by their abilities to produced superoxide as measured by reduction of NBT, by NSE staining and by morphology as detected on cytospin preparations stained with Diff-Quick stain Set, and by analysis of membrane-bound differentiation markers with two-color immunofluorescence. Briefly, cells were preincubated at 4° C. for 60 min in 10% human AB serum and then with FITC-conjugated mouse IgGI isotype control. Analysis of fluorescence was performed on a flow cytometer.
Cell Cycle Analysis. The cell cycle was analyzed by flow cytometry after 60 h of incubation of HL-60 cells either with or without HHT (10^−8 M) as described. Briefly, the cells were fixed in cold methanol and incubated for 30 min at 4° C. in the dark with a solution of 50 μg/ml propidium iodide, 1 mg/ml Rnase, and 0.1% NP40. Analysis was performed immediately after staining using the CELLFIT program whereby the S-phase was calculated with Rfit model.
Clonogenic Assay in soft Agar. HL-60 cells were culture in a two-layer soft agar system for 10 days without adding any growth factors as described previously, and colonies were counted using an inverted microscope. […]

[4] = Pharmacokinetic study: tissue AUC; type: in vivo, mice; conditions: 0.5 mg HHT/kg via the tail
Description: Present example described Pharmacokinetic studied of NP. Free HHT and PK-HHT-NP were given to mice via the tail at dose of 0.5 mg HHT/kg. Other methods are as same as method of Example 22.

gastric cancer cells = experiment: Differentiation of gastric cancer cells; type: cell-based
Description: The gastric cancer cells and normal cells were cultured in PRMI 1640 medium supplement with 10% FCS serum. Other method is similar to example 1.

Compound: CC[C@@]1(O)C(=O)OCc2c1cc1n(c2=O)Cc2cc3ccccc3nc2-1 [CPT, Camptothecin]
- Increase in life span T/C (%) (tumor-bearing mice): 144.3%
- MST (tumor-bearing mice): 33 ± 4.5 days
- Number of stained dead tumor cells (1 × 10^6 cells mL^−1) (tumor cells): 5.36 ± 0.95 1 × 10^6 cells mL^−1
- NBT % (percentage of cells capable of reducing NBT) [1]: 65.8 ± 9.1%
- subacute toxicity: side effects (Subacute toxicity test): no side effects had been observed

Compound: C=C1C[C@@]2(O)O[C@@]3(C[C@H]2C(C)C)[C@@H](C)CC[C@@H]13 [CUR, Curcumol]
- Increase in life span T/C (%) (tumor S-180 [2]): 134.78%
- MST (tumor S-180 [2]): 31 ± 1.9 days
- Number of stained dead tumor cells (1 × 10^6 cells mL^−1) (tumor S-180 [3]): 5.36 ± 0.95 1 × 10^6 cells mL^−1
- NBT % (percentage of cells capable of reducing NBT) [1]: 68.5 ± 8.5%
- subacute toxicity: side effects (Subacute toxicity test): no side effects had been observed

Compound: COC(=O)C[C@](O)(CCCC(C)(C)O)C(=O)O[C@@H]1C(OC)=C[C@]23CCCN2CCc2cc4c(cc2[C@H]13)OCO4 [HHT, Homoharringtonine]
- Survival time T/L days (L-120 leukemia; Dose 1 mg/kg): 5/9
- T/C (%) (L-120 leukemia; Dose 1 mg/kg): 55.6%
- Survival time T/L days (L-120 leukemia; Dose 5 mg/kg): 27/9
- T/C (%) (L-120 leukemia; Dose 5 mg/kg): 300%
- NBT (%) (HL-60 cells): 65* %
- Tissue AUC, Blood [4]: 3.0 µg·h/g
- Tissue AUC, Cancer [4]: 12.0 µg·h/g
- Tissue AUC, Heart [4]: 89.2 µg·h/g
- Tissue AUC, Kidney [4]: 243.2 µg·h/g
- Tissue AUC, Liver [4]: 168.8 µg·h/g
- Tissue AUC, Lung [4]: 138.9 µg·h/g
- Tissue AUC, Spleen [4]: 192.8 µg·h/g
- NBT (%) (gastric cancer cells): 58* %
- NSE (%) (gastric cancer cells): 60* %

Compound: Eelemene
- Increase in life span T/C (%) (tumor-bearing mice): 144.3%
- MST (tumor-bearing mice): 33.2 days
- Number of stained dead tumor cells (1 × 10^6 cells mL^−1) (tumor cells): 5.80 ± 0.80 1 × 10^6 cells mL^−1
- NBT % (percentage of cells capable of reducing NBT) [1]: 69.5 ± 10.1%
- subacute toxicity: side effects (Subacute toxicity test): no side effects had been observed
